Results published in publication PMC10133546, “Simultaneous determination of multiple components in rat plasma by UHPLC-sMRM for pharmacokinetic studies after oral administration of Qingjin Yiqi Granules” (Frontiers in Pharmacology, 2023).
Like-named read-outs stand apart in the source and are kept apart here.

Experiments:
[1] = Pharmacokinetic study in rat plasma after oral administration of QJYQ (UHPLC-sMRM); assay type: in vivo, Sprague-Dawley rats; conditions: rat plasma, oral QJYQ 3.15 g/kg
Experimental: Exion LC AD tandem Blueline 3500 triple quadrupole mass spectrometer (AB SCIEX, Framingham, MA, United States) was used to thirty-three compounds in rat plasma. […] The whole detailed parameters of sMRM were obtained in Supplementary Table S1.
Rat plasma (100 μL) was mixed with 10% formic acid (10 μL) and vortexed for 1 min at room temperature. ISs (10 μL) and methanol/acetonitrile (1/1, v/v) (400 μL) were added and vortexed for 5 min, then centrifuged for 10 min at 14,000 rpm and 4°C. The transported supernatant was condensed to dryness under the flow of nitrogen gas. The dried residue was reconstituted with 70% methanol (100 μL) by vortex-mixing for 5 min and centrifuging at 14,000 rpm for 10 min. Last, 2 μL of the solution were injected into the UHPLC-sMRM system.
The pharmacokinetic study was approved by the Animal Ethics Committee of Tianjin University of Traditional Chinese Medicine (TCM-LAEC2021228). Ten male Sprague-Dawley rats (weight 220–240 g) was kept at the animal center of Tianjin University of Traditional Chinese Medicine (Tianjin, China). […] The sample was transferred right away following a 10 min period of centrifugation at 7000 rpm and 4°C. All plasma samples were frozen and stored at −80°C.
All the pharmacokinetic parameters were calculated using the DAS 1.0 software (Drug and Statistics 1.0, Medical College of Wannan, China). Pharmacokinetic parameters include the maximum drug concentration in plasma (Cmax), the time to achieve maximum drug concentration (Tmax), the area under the plasma concentration-time curve (AUC), elimination half-life (T1/2), and mean residence time (MRT). The pharmacokinetic parameters were computed using the non-compartmental model. All data are expressed as mean ± standard deviation (SD). GraphPad Prism 8.0 (GraphPad Software Inc., La Jolla, CA, United States) software was used to draw the drug-time curve.

[2] = Stability of analytes in rat plasma (auto-sampler, freeze-thaw, room temperature, long-term); conditions: for Autosampler for 24 h Accuracy (%): autosampler 24 h; for Room temperature for 24 h Accuracy (%): room temperature 24 h; for Freeze thaw cycles Accuracy (%): three freeze-thaw cycles
[3] = Stability of the working solution (4°C for 1 month); assay type: physicochemical

COc1cc(/C=C/C(=O)O)ccc1O [ferulic acid]
MRT ([1]; MRT type not specified): greater than 8 h
AUC(0-t) ([1]; n = 8, mean ± SD): 173.23 ± 5.66 ng·h/mL
AUC(0-∞) ([1]; n = 8, mean ± SD): 176.72 ± 28.57 ng·h/mL
Cmax ([1]; n = 8, mean ± SD): 51.71 ± 10.68 ng/mL
MRT (0-∞) ([1]; n = 8, mean ± SD): 8.43 ± 0.53 h
MRT(0-t) ([1]; n = 8, mean ± SD): 8.40 ± 0.20 h
T1/2 ([1]; n = 8, mean ± SD): 2.12 ± 0.07 h
Autosampler for 24 h Accuracy (%) ([2]; 12.5 ng/mL): 84.5%
Room temperature for 24 h Accuracy (%) ([2]; 12.5 ng/mL): 104.0%
Freeze thaw cycles Accuracy (%) ([2]; 12.5 ng/mL): 96.0%
−80°C for 1month Accuracy (%) ([2]; 12.5 ng/mL, −80°C 1 month): 115.0%
Autosampler for 24 h Accuracy (%) ([2]; 50 ng/mL): 86.9%
Room temperature for 24 h Accuracy (%) ([2]; 50 ng/mL): 96.8%
Freeze thaw cycles Accuracy (%) ([2]; 50 ng/mL): 98.3%
−80°C for 1month Accuracy (%) ([2]; 50 ng/mL, −80°C 1 month): 90.9%
Autosampler for 24 h Accuracy (%) ([2]; 100 ng/mL): 91.5%
Room temperature for 24 h Accuracy (%) ([2]; 100 ng/mL): 86.7%
Freeze thaw cycles Accuracy (%) ([2]; 100 ng/mL): 115.0%
−80°C for 1month Accuracy (%) ([2]; 100 ng/mL, −80°C 1 month): 95.9%
Autosampler for 24 h Accuracy (%) ([2]; 500 ng/mL): 93.6%
−80°C for 1month Accuracy (%) ([2]; 500 ng/mL, −80°C 1 month): 107.0%
Working solution Accuracy (%) ([3]; 12.5 ng/mL): 87.7%
Working solution Accuracy (%) ([3]; 50 ng/mL): 96.8%
Working solution Accuracy (%) ([3]; 100 ng/mL): 88.3%
Working solution Accuracy (%) ([3]; 500 ng/mL): 96.7%

CC1(C)[C@@H](O[C@H]2O[C@H](C(=O)O)[C@@H](O)[C@H](O)[C@H]2O[C@@H]2O[C@H](C(=O)O)[C@@H](O)[C@H](O)[C@H]2O)CC[C@]2(C)[C@H]3C(=O)C=C4[C@@H]5C[C@@](C)(C(=O)O)CC[C@]5(C)CC[C@@]4(C)[C@]3(C)CC[C@@H]12 [glycyrrhizic acid]
Tmax ([1]; male, Sprague-Dawley, rat, plasma, po, 3.15 g/kg, n = 8, mean ± SD, read-out: Tmax): < 0.5 h
half-life ([1]; male, Sprague-Dawley, n = 8, mean ± SD): 1.67 ± 0.16 h
AUC(0-t) ([1]; male, Sprague-Dawley, n = 8, mean ± SD, read-out: AUC(0-t)): 1110 ± 138 ng·h/mL
AUC(0-inf) ([1]; male, Sprague-Dawley, n = 8, mean ± SD, read-out: AUC(0-∞)): 1120 ± 228 ng·h/mL
Cmax ([1]; male, Sprague-Dawley, n = 8, mean ± SD, read-out: Cmax): 359 ± 147 ng/mL
MRT inf ([1]; male, Sprague-Dawley, n = 8, mean ± SD, read-out: MRT (0-∞)): 5.38 ± 1.16 h
MRT last ([1]; male, Sprague-Dawley, n = 8, mean ± SD, read-out: MRT(0-t)): 5.3 ± 0.28 h
Autosampler for 24 h Accuracy (%) ([2]; concentration 12.5 ng/mL): 94.4%
Autosampler for 24 h Accuracy (%) ([2]; concentration 50 ng/mL): 100.0%
Autosampler for 24 h Accuracy (%) ([2]; concentration 100 ng/mL): 94.3%
Autosampler for 24 h Accuracy (%) ([2]; concentration 500 ng/mL): 94.5%
Room temperature for 24 h Accuracy (%) ([2]; concentration 50 ng/mL): 94.6%
Room temperature for 24 h Accuracy (%) ([2]; concentration 100 ng/mL): 107.0%
Room temperature for 24 h Accuracy (%) ([2]; concentration 500 ng/mL): 89.9%
Freeze thaw cycles Accuracy (%) ([2]; concentration 12.5 ng/mL): 84.6%
Freeze thaw cycles Accuracy (%) ([2]; concentration 500 ng/mL): 97.0%
−80°C for 1month Accuracy (%) ([2]; −80°C for 1 month, concentration 12.5 ng/mL): 85.6%
−80°C for 1month Accuracy (%) ([2]; −80°C for 1 month, concentration 50 ng/mL): 89.7%
−80°C for 1month Accuracy (%) ([2]; −80°C for 1 month, concentration 100 ng/mL): 96.2%
−80°C for 1month Accuracy (%) ([2]; −80°C for 1 month, concentration 500 ng/mL): 93.4%
Working solution Accuracy (%) ([3]; concentration 50 ng/mL): 88.5%
Working solution Accuracy (%) ([3]; concentration 100 ng/mL): 104.0%
Working solution Accuracy (%) ([3]; concentration 500 ng/mL): 87.0%

COc1ccc([C@@H]2CC(=O)c3c(O)cc(O[C@@H]4O[C@H](CO[C@@H]5O[C@@H](C)[C@H](O)[C@@H](O)[C@H]5O)[C@@H](O)[C@H](O)[C@H]4O)cc3O2)cc1O [hesperidin]
AUC(0-t) ([1]; n = 8, mean ± SD): 1058.05 ± 267.32 ng·h/mL
AUC(0-∞) ([1]; n = 8, mean ± SD): 1058.06 ± 267.32 ng·h/mL
Cmax ([1]; n = 8, mean ± SD): 604.36 ± 145.25 ng/mL
MRT (0-∞) ([1]; n = 8, mean ± SD): 4.52 ± 0.54 h
MRT(0-t) ([1]; n = 8, mean ± SD): 4.52 ± 0.54 h
T1/2 ([1]; n = 8, mean ± SD): 1.94 ± 0.03 h
Autosampler for 24 h Accuracy (%) ([2]; 12.5 ng/mL): 82.1%
Room temperature for 24 h Accuracy (%) ([2]; 12.5 ng/mL): 84.1%
Freeze thaw cycles Accuracy (%) ([2]; 12.5 ng/mL): 94.3%
−80°C for 1month Accuracy (%) ([2]; 12.5 ng/mL, −80°C 1 month): 81.8%
Autosampler for 24 h Accuracy (%) ([2]; 50 ng/mL): 100.0%
Room temperature for 24 h Accuracy (%) ([2]; 50 ng/mL): 93.7%
Freeze thaw cycles Accuracy (%) ([2]; 50 ng/mL): 85.4%
−80°C for 1month Accuracy (%) ([2]; 50 ng/mL, −80°C 1 month): 85.8%
Autosampler for 24 h Accuracy (%) ([2]; 100 ng/mL): 96.0%
Room temperature for 24 h Accuracy (%) ([2]; 100 ng/mL): 92.3%
Freeze thaw cycles Accuracy (%) ([2]; 100 ng/mL): 95.7%
−80°C for 1month Accuracy (%) ([2]; 100 ng/mL, −80°C 1 month): 93.1%
Autosampler for 24 h Accuracy (%) ([2]; 500 ng/mL): 87.8%
Room temperature for 24 h Accuracy (%) ([2]; 500 ng/mL): 92.3%
Freeze thaw cycles Accuracy (%) ([2]; 500 ng/mL): 89.1%
−80°C for 1month Accuracy (%) ([2]; 500 ng/mL, −80°C 1 month): 93.6%
Working solution Accuracy (%) ([3]; 12.5 ng/mL): 81.7%
Working solution Accuracy (%) ([3]; 50 ng/mL): 109.0%
Working solution Accuracy (%) ([3]; 100 ng/mL): 102.0%
Working solution Accuracy (%) ([3]; 500 ng/mL): 91.0%
